Measured values reported in ChEMBL document CHEMBL1131884, “Dicationic 2-fluorenonylcarbapenems: potent anti-MRS agents with improved solubility and pharmacokinetic properties” (Bioorg Med Chem Lett, 1999).

Key:
[1] = tested on: Staphylococcus sp.; experiment: Antibacterial activity against methicillin-resistant coagulase negative Staphylococci (MRCNS); format: functional
[2] = target: T1, MecA (Staphylococcus aureus, UniProt Q7DHH4); experiment: Binding affinity against PBP2a receptor by competition analysis with [3H]benzylpenicillin using cell membrane fractions from the MRSA COL strain.
T1 sequence (Q7DHH4 whole entry): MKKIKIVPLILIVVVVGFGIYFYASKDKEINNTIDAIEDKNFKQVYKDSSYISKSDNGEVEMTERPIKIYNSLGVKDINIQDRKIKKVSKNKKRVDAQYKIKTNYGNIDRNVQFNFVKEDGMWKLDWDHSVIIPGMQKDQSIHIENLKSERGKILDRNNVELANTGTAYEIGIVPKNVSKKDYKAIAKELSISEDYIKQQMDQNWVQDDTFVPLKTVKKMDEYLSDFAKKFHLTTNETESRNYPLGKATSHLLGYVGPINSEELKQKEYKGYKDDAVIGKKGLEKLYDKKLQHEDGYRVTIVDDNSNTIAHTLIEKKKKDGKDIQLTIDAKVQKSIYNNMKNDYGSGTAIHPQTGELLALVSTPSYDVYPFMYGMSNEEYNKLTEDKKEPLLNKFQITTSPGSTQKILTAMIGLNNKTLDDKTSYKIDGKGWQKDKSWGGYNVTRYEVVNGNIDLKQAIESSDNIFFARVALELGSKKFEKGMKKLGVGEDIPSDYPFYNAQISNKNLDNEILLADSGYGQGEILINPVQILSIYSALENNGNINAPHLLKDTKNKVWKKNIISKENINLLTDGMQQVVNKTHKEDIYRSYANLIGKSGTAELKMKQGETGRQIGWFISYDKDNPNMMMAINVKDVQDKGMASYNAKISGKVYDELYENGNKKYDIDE

[3] = tested on: Staphylococcus aureus; experiment: Antibacterial activity against methicillin-resistant Staphylococcus aureus (MRSA); format: functional

SMILES	MIC50 [1] [µg/mL]	MIC90 [1] [µg/mL]	IC50 [2] [nM]	MIC50 [3] [µg/mL]	MIC90 [3] [µg/mL]
COc1cccc(NC(=O)C[N+]23CC[N+](Cc4ccc5c(c4)C(=O)c4ccc(C6=C(C(=O)O)N7C(=O)[C@H]([C@@H](C)O)[C@H]7[C@H]6C)cc4-5)(CC2)CC3)c1.[Cl-].[Cl-]	1	4	2430	1	1
CC(=O)c1ccc(NC(=O)C[N+]23CC[N+](Cc4ccc5c(c4)C(=O)c4ccc(C6=C(C(=O)O)N7C(=O)[C@H]([C@@H](C)O)[C@H]7[C@H]6C)cc4-5)(CC2)CC3)cc1.[Cl-].[Cl-]	1	4	3150	0.5	1
C[C@@H](O)[C@H]1C(=O)N2C(C(=O)O)=C(c3ccc4c(c3)-c3ccc(C[N+]56CC[N+](CC(=O)N(C)C)(CC5)CC6)cc3C4=O)[C@H](C)[C@H]12.[Cl-].[Cl-]	4	16	581	4	8
C[C@@H](O)[C@H]1C(=O)N2C(C(=O)O)=C(c3ccc4c(c3)-c3ccc(C[N+]56CC[N+](CCO)(CC5)CC6)cc3C4=O)C[C@H]12.[Cl-].[Cl-]	2	4	276	2	4
C[C@@H](O)[C@H]1C(=O)N2C(C(=O)O)=C(c3ccc4c(c3)-c3ccc(C[N+]56CC[N+](CC(=O)Nc7ccncc7)(CC5)CC6)cc3C4=O)[C@H](C)[C@H]12.[Cl-].[Cl-]	2	4	1190	1	2
C[C@@H](O)[C@H]1C(=O)N2C(C(=O)O)=C(c3ccc4c(c3)-c3ccc(C[N+]56CC[N+](CC(=O)Nc7nccs7)(CC5)CC6)cc3C4=O)[C@H](C)[C@H]12.[Cl-].[Cl-]	4	8	853	2	4
C[C@@H](O)[C@H]1C(=O)N2C(C(=O)O)=C(c3ccc4c(c3)-c3ccc(C[N+]56CC[N+](CC(=O)Nc7cccc(CO)c7)(CC5)CC6)cc3C4=O)[C@H](C)[C@H]12.[Cl-].[Cl-]	1	4	1600	1	2
C[C@@H](O)[C@H]1C(=O)N2C(C(=O)O)=C(c3ccc4c(c3)-c3ccc(C[N+]56CC[N+](CC(=O)NC(C)(C)C)(CC5)CC6)cc3C4=O)[C@H](C)[C@H]12.[Cl-].[Cl-]	4	8	3430	2	4
C[C@@H](O)[C@H]1C(=O)N2C(C(=O)O)=C(c3ccc4c(c3)-c3ccc(C[N+]56CC[N+](CCO)(CC5)CC6)cc3C4=O)[C@H](C)[C@H]12.[Cl-].[Cl-]	4	8	1030	4	4
C[C@@H](O)[C@H]1C(=O)N2C(C(=O)O)=C(c3ccc4c(c3)-c3ccc(C[N+]56CC[N+](C)(CC5)CC6)cc3C4=O)[C@H](C)[C@H]12.[Cl-].[Cl-]	4	8	1230	2	4
CC(C)NC(=O)C[N+]12CC[N+](Cc3ccc4c(c3)C(=O)c3ccc(C5=C(C(=O)O)N6C(=O)[C@H]([C@@H](C)O)[C@H]6[C@H]5C)cc3-4)(CC1)CC2.[Cl-].[Cl-]	4	8	1240	2	4
C[C@@H](O)[C@H]1C(=O)N2C(C(=O)O)=C(c3ccc4c(c3)-c3ccc(C[N+]56CC[N+](CC(=O)Nc7ccc(CO)cc7)(CC5)CC6)cc3C4=O)[C@H](C)[C@H]12.[Cl-].[Cl-]	1	4	2670	1	2
C[C@@H](O)[C@H]1C(=O)N2C(C(=O)O)=C(c3ccc4c(c3)-c3ccc(C[N+]56CC[N+](CC(=O)Nc7cccc(C#N)c7)(CC5)CC6)cc3C4=O)[C@H](C)[C@H]12.[Cl-].[Cl-]	1	2	752	0.5	1
C[C@@H](O)[C@H]1C(=O)N2C(C(=O)O)=C(c3ccc4c(c3)-c3ccc(C[N+]56CC[N+](CC(=O)Nc7cccnc7)(CC5)CC6)cc3C4=O)[C@H](C)[C@H]12.[Cl-].[Cl-]	2	4	611	1	2
C[C@@H](O)[C@H]1C(=O)N2C(C(=O)O)=C(c3ccc4c(c3)-c3ccc(C[N+]56CC[N+](CC(=O)Nc7ccc(C#N)cc7)(CC5)CC6)cc3C4=O)[C@H](C)[C@H]12.[Cl-].[Cl-]	1	4	1410	1	2
C[C@@H](O)[C@H]1C(=O)N2C(C(=O)O)=C(c3ccc4c(c3)-c3ccc(C[N+]56CC[N+](CC(=O)Nc7ccc(C(N)=O)cc7)(CC5)CC6)cc3C4=O)[C@H](C)[C@H]12.[Cl-].[Cl-]	0.5	2	1970	0.25	0.5
C[C@@H](O)[C@H]1C(=O)N2C(C(=O)O)=C(c3ccc4c(c3)-c3ccc(C[N+]56CC[N+](CCOc7ccccc7)(CC5)CC6)cc3C4=O)[C@H](C)[C@H]12.[Cl-].[Cl-]	2	4	566	1	2
COc1ccccc1NC(=O)C[N+]12CC[N+](Cc3ccc4c(c3)C(=O)c3ccc(C5=C(C(=O)O)N6C(=O)[C@H]([C@@H](C)O)[C@H]6[C@H]5C)cc3-4)(CC1)CC2.[Cl-].[Cl-]	2	4	867	1	2
C[C@@H](O)[C@H]1C(=O)N2C(C(=O)O)=C(c3ccc4c(c3)-c3ccc(C[N+]56CC[N+](C)(CC5)CC6)cc3C4=O)C[C@H]12.[Cl-].[Cl-]	2	4	307	2	8
C[C@@H](O)[C@H]1C(=O)N2C(C(=O)O)=C(c3ccc4c(c3)-c3ccc(C[N+]56CC[N+](CC(=O)N(C)c7ccccc7)(CC5)CC6)cc3C4=O)[C@H](C)[C@H]12.[Cl-].[Cl-]	8	16	1230	4	4
